Calls of active or inactive are those of the source. The calls are words filed in the database; no cut-off is given here.
What was measured:
[1] = tested on: IGROV-1; test: Cytotoxicity against human IGROV1 cells after 48 hrs by trypan blue assay; assay type: functional, cell-based
[2] = tested on: HCT-116; test: Growth inhibition of human HCT116 cells after 48 hrs by SRB assay; assay type: functional; conditions: HCT-116, 48 h
[3] = tested on: PC-3; test: Growth inhibition of human PC3 cells after 48 hrs by SRB assay; assay type: functional; conditions: PC-3, 48 h
[4] = tested on: BXPC-3; test: Induction of apoptosis in human BxPC3 cells assessed as cleaved caspase-3 containing cells at 50 uM after 24 hrs by FACS analysis (reference value: 10%); assay type: functional
[5] = tested on: BXPC-3; test: Induction of apoptosis in human BxPC3 cells assessed as early apoptotic cells at 50 uM after 24 hrs by Annexin V/7-AAD staining based flow cytometry (reference value: 11%); assay type: functional
[6] = tested on: BXPC-3; test: Induction of apoptosis in human BxPC3 cells assessed as total apoptotic death cells at 50 uM after 24 hrs by Annexin V/7-AAD staining based flow cytometry (reference value: 20%); assay type: functional
[7] = tested on: IGROV-1; test: Cell cycle arrest in human IGROV1 cells assessed as accumulation at G1 phase at 0.5 uM after 24 hrs by propidium iodide staining based flow cytometry (reference value: 27%); assay type: functional
[8] = tested on: IGROV-1; test: Induction of apoptosis in human IGROV1 cells assessed as late apoptotic cells at 0.5 uM after 24 hrs by Annexin V/7-AAD staining based flow cytometry (reference value: 4%); assay type: functional
[9] = tested on: IGROV-1; test: Cell cycle arrest in human IGROV1 cells assessed as accumulation at < G1 phase at 5 uM after 24 hrs by propidium iodide staining based flow cytometry (reference value: 4%); assay type: functional
[10] = tested on: IGROV-1; test: Induction of apoptosis in human IGROV1 cells assessed as healthy cells at 5 uM after 24 hrs by Annexin V/7-AAD staining based flow cytometry (reference value: 86%); assay type: functional
[11] = tested on: IGROV-1; test: Cell cycle arrest in human IGROV1 cells assessed as accumulation at G1 phase at 15 uM after 24 hrs by propidium iodide staining based flow cytometry (reference value: 27%); assay type: functional
[12] = tested on: IGROV-1; test: Induction of apoptosis in human IGROV1 cells assessed as cleaved caspase-3 containing cells at 50 uM after 24 hrs by FACS analysis (reference value: 4%); assay type: functional
[13] = tested on: PC-3; test: Cell cycle arrest in human PC3 cells assessed as accumulation at < G1 phase at 0.5 uM after 24 hrs by propidium iodide staining based flow cytometry (reference value: 4%); assay type: functional
[14] = tested on: PC-3; test: Cell cycle arrest in human PC3 cells assessed as accumulation at >G2 phase at 0.5 uM after 24 hrs by propidium iodide staining based flow cytometry (reference value: 6%); assay type: functional
[15] = tested on: PC-3; test: Cell cycle arrest in human PC3 cells assessed as accumulation at G1 phase at 5 uM after 24 hrs by propidium iodide staining based flow cytometry (reference value: 36%); assay type: functional
[16] = tested on: PC-3; test: Cell cycle arrest in human PC3 cells assessed as accumulation at >G2 phase at 5 uM after 24 hrs by propidium iodide staining based flow cytometry (reference value: 6%); assay type: functional
[17] = tested on: PC-3; test: Induction of apoptosis in human PC3 cells assessed as healthy cells at 5 uM after 24 hrs by Annexin V/7-AAD staining based flow cytometry (reference value: 92%); assay type: functional
[18] = tested on: PC-3; test: Cell cycle arrest in human PC3 cells assessed as accumulation at >G2 phase at 50 uM after 24 hrs by propidium iodide staining based flow cytometry (reference value: 6%); assay type: functional
[19] = tested on: Mus musculus; test: Analgesic activity against formalin-induced neuropathic pain in paclitaxel treated CD1 mouse assessed as decrease of time spent in paw licking at 100 mg/kg, po administered 14 days post paclitaxel dosing and 1 hr prior formalin challenge measured for 35 to 40 mins post formalin challenge; assay type: functional, organism-based; design: dose 100 mg/kg
[20] = tested on: SF-268; test: Growth inhibition of human SF268 cells after 48 hrs by SRB assay; assay type: functional; conditions: SF-268, 48 h
[21] = tested on: H69AR; test: Growth inhibition of human H69AR cells after 48 hrs by SRB assay; assay type: functional
[22] = (§1) Growth inhibition of NHDF cells after 48 hrs by SRB assay; assay type: cell-based; conditions: human, NHDF cells
[23] = tested on: NHDF; test: as §1; assay type: cell-based; conditions: human, nhdf, 48 h
[24] = Displacement of [3H](+)1-DTG from sigma-2 receptor expressed in rat cerebral cortex membranes after 2 hrs by liquid scintillation spectroscopy; assay type: cell membranes, Membrane
[25] = Displacement of [3H]BTX-B from Na+ channel site 2 after 60 mins by liquid scintillation spectroscopy
[26] = tested on: BXPC-3; test: Antitumor activity against human BxPC3 cells xenografted in SCID mouse assessed as reduction in tumor volume at 40 mg/kg, ip for 5 consecutive days and 2 administrations for one more week; assay type: functional; conditions: BXPC-3, ip, route intraperitoneal
[27] = tested on: Mus musculus; test: Toxicity in SCID mouse assessed as weight loss at 40 mg/kg, ip after 3 to 4 weeks chronic treatment; assay type: organism-based; design: dose 40 mg/kg, route intraperitoneal; conditions: in vivo
[28] = tested on: BXPC-3; test: Cell cycle arrest in human BxPC3 cells assessed as accumulation at G1 phase at 0.5 uM after 24 hrs by propidium iodide staining based flow cytometry (reference value: 41%); assay type: functional
[29] = tested on: BXPC-3; test: Cell cycle arrest in human BxPC3 cells assessed as accumulation at >G2 phase at 0.5 uM after 24 hrs by propidium iodide staining based flow cytometry (reference value: 6%); assay type: functional
[30] = tested on: BXPC-3; test: Induction of apoptosis in human BxPC3 cells assessed as cleaved caspase-3 containing cells at 0.5 uM after 24 hrs by FACS analysis (reference value: 10%); assay type: functional
[31] = tested on: BXPC-3; test: Induction of apoptosis in human BxPC3 cells assessed as healthy cells at 0.5 uM after 24 hrs by Annexin V/7-AAD staining based flow cytometry (reference value: 77%); assay type: functional
[32] = tested on: BXPC-3; test: Induction of apoptosis in human BxPC3 cells assessed as late apoptotic cells at 0.5 uM after 24 hrs by Annexin V/7-AAD staining based flow cytometry (reference value: 9%); assay type: functional
[33] = tested on: BXPC-3; test: Cell cycle arrest in human BxPC3 cells assessed as accumulation at >G2 phase at 5 uM after 24 hrs by propidium iodide staining based flow cytometry (reference value: 6%); assay type: functional
[34] = tested on: BXPC-3; test: Induction of apoptosis in human BxPC3 cells assessed as healthy cells at 5 uM after 24 hrs by Annexin V/7-AAD staining based flow cytometry (reference value: 77%); assay type: functional
[35] = tested on: BXPC-3; test: Induction of apoptosis in human BxPC3 cells assessed as early apoptotic cells at 5 uM after 24 hrs by Annexin V/7-AAD staining based flow cytometry (reference value: 11%); assay type: functional
[36] = tested on: BXPC-3; test: Cell cycle arrest in human BxPC3 cells assessed as accumulation at G1 phase at 15 uM after 24 hrs by propidium iodide staining based flow cytometry (reference value: 41%); assay type: functional
[37] = tested on: BXPC-3; test: Cell cycle arrest in human BxPC3 cells assessed as accumulation at >G2 phase at 15 uM after 24 hrs by propidium iodide staining based flow cytometry (reference value: 6%); assay type: functional
[38] = tested on: BXPC-3; test: Induction of apoptosis in human BxPC3 cells assessed as cleaved caspase-3 containing cells at 15 uM after 24 hrs by FACS analysis (reference value: 10%); assay type: functional
[39] = read-out: LC50 (the source's name)

With `CN1CCN(c2ccc(C(c3ccccc3)C34CC5CC(CC(C5)C3)C4)cc2)CC1` (configuration not stated) the Activity [1] was “Active”, the GI50 [2] was 4.92 µM and the TGI [2] was 9.37 µM. For the same compound, the CC50 [2, 39] was 100 µM, the GI50 [3] was 6.8 µM and the TGI [3] was 32.9 µM. It also gave a CC50 [3, 39] of 100 µM, an Activity [4] of 16% and an Activity [5] of 15%. It also gave an Activity [6] of 48%, an Activity [7] of 26% and an Activity [8] of 3%. For the same compound, the Activity [9] was 5%, the Activity [10] was 88% and the Activity [11] was 21%. For the same compound, the Activity [12] was 68%, the Activity [13] was 9% and the Activity [14] was 4%. It also gave an Activity [15] of 34%, an Activity [16] of 5% and an Activity [17] of 92%. For the same compound, the Activity [18] was 11%, the Activity [19] was “Active” and the GI50 [20] was 18.9 µM. It also gave a TGI [20] of 61.6 µM, a CC50 [20, 39] of 100 µM and a GI50 [21] of 6.04 µM. For the same compound, the TGI [21] was 18.4 µM, the CC50 [21, 39] was 90.5 µM and the GI50 at 48 h [22] was 5.3 µM. It also gave an LC50 [23] of 100 µM, a TGI [23] of 9.6 µM and an IC50 [24] of 0.0376 µM. For the same compound, the IC50 [25] was 1.2 µM, the inhibition in vivo at 40 mg/kg [26] was 37.8% and the Activity [27] was “Non-toxic”. It also gave an Activity [28] of 37%, an Activity [29] of 8% and an Activity [30] of 3%. The Activity [31] was 84%, the Activity [32] was 6% and the Activity [33] was 8%. It also gave an Activity [34] of 65%, an Activity [35] of 17% and an Activity [36] of 51%. It also gave an Activity [37] of 5% and an Activity [38] of 11%.

Reference: ChEMBL document CHEMBL2021794, “Synthesis, σ₁, σ₂-receptors binding affinity and antiproliferative action of new C1-substituted adamantanes” (Bioorg Med Chem, 2012)
